Reference: PubChem BioAssay AID816 (SRMLSC, 2007)
Active and inactive are the calls of the source. No rule for the calls is given here.

Test system: S. cerevisiae GAL1 promoter reporter activation counterscreen
Experiment: yeast Gal1p promoter activation – S. cerevisiae, artefact control for yeast lifespan extension project (AID 816);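 also: yeast growth read after 24 h of incubation with compounds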

Row | Structure (SMILES) | EC50
1 | CN(C)/C=C(/C(=O)c1ccc(Cl)cc1Cl)S(=O)(=O)c1ccc(Cl)cc1 | > 40 µM (inactive)
2 | O=C1CC(c2ccc(F)cc2)CC(O)=C1C=NCCN1CCN(C(=O)Nc2ccccc2)CC1 (centres undefined) | > 40 µM (inactive)
3 | Cc1c(NC(=O)C(=O)/C=C(/O)c2ccccc2)c(=O)n(-c2ccccc2)n1C | > 40 µM (inactive)
4 | O=c1cc(O)c2c(=O)n(-c3ccccc3)c3c(c2o1)CCCCC3 | > 40 µM (inactive)
5 | COc1ccc(NCc2nc3ccccc3n2CCOc2ccccc2)cc1 | > 40 µM (inactive)
6 | O=C(Oc1cc(=O)n2ccccc2n1)c1ccccc1 | > 40 µM (inactive)
7 | CCN1C(=O)/C(=C/N(C(C)=O)c2ccccc2)N(c2ccccc2)C1=S | > 40 µM (inactive)
8 | CCOC(=O)C1=C(N)OC2=C(C(=O)CCC2)C1c1sccc1C (centres undefined) | > 40 µM (inactive)
9 | CCCC(=O)C1C(=O)CC(CC(C)SCC)CC1=O (centres undefined) | > 40 µM (inactive)
10 | Cc1[nH]n(-c2ccccc2)c(=O)c1N=Nc1nccs1 | > 40 µM (inactive)
11 | CC(C)C(OC(=O)CN1C(=O)COc2ccccc21)C(=O)NC1CCCC1 (centres undefined) | > 40 µM (inactive)
12 | O=S(=O)(Nc1cccc2c1CCCC2)c1ccc(Cl)cc1 | > 40 µM (inactive)
13 | COC(=O)CC1=NN(c2ccccc2)C(=O)/C1=C\c1ccc(OC)cc1 | > 40 µM (inactive)
14 | CN(Cc1c(O)ccc2c1oc(=O)c1ccccc12)C1CCCCC1 | > 40 µM (inactive)
15 | CC1CC(C)CN(S(=O)(=O)c2cccc(C(=O)N3C(=O)c4cccc(N)c4C3=O)c2)C1 (centres undefined) | > 40 µM (inactive)
16 | O=C(NCC1CCCO1)c1c(O)c2ccccc2[nH]c1=O (centres undefined) | > 40 µM (inactive)
17 | CCOc1ccc(N=Cc2c(O)c3ccccc3oc2=O)cc1 | > 40 µM (inactive)
18 | CC(C)=C1C(=O)NN(c2ccc(C)c(Cl)c2)C1=O | > 40 µM (inactive)
19 | Cc1cc(N2C(=O)CC(Cc3ccccc3)C2=O)no1 (centres undefined) | > 40 µM (inactive)
20 | CS(=O)(=O)c1nc(-c2ccco2)cc(C(F)(F)F)n1 | > 40 µM (inactive)
21 | CC(C)CN=C(NS(=O)(=O)c1ccccc1)C(Cl)(Cl)Cl | > 40 µM (inactive)
22 | CC(C)(C)C(=O)Cn1c(=N)n(Cc2ccccc2)c2ccccc21 | > 40 µM (inactive)
23 | CC(=O)N1CCN(CCN=CC2=C(O)CC(c3cccs3)CC2=O)CC1 (centres undefined) | > 40 µM (inactive)
24 | CCOC(=O)c1cnc(-c2ccccc2)nc1Oc1ccc(Cl)cc1 | > 40 µM (inactive)
25 | CC1C/C(=C\c2cccnc2)C(=O)/C(=C/c2cccnc2)C1 (centres undefined) | > 40 µM (inactive)

Row | Structure (SMILES) | EC50
26 | COc1cc(C(C[N+](=O)[O-])c2c(-c3ccccc3)cc3ccccn23)cc(OC)c1OC (centres undefined) | > 40 µM (inactive)
27 | NC(=S)N/N=C/c1coc2cc(Cl)ccc2c1=O | > 40 µM (inactive)
28 | CCOC(=O)C1=C(C)Nc2nc(=S)[nH]n2C1c1ccc(Cl)cc1 (centres undefined) | > 40 µM (inactive)
29 | Cc1ccc(C(C2=C(O)CC(C)(C)CC2=O)C2C(=O)CC(C)(C)CC2=O)o1 (centres undefined) | > 40 µM (inactive)
30 | C[C@]12CC[C@@H](O)C[C@@H]1CC[C@@H]1[C@@H]2CC[C@]2(C)[C@@H](O)CC[C@@H]12 | > 40 µM (inactive)
31 | O=C1/C(=C/c2cccnc2)CCC/C1=C\c1cccnc1 | > 40 µM (inactive)
32 | O=[N+]([O-])c1cc(S(=O)(=O)N2CCCCCC2)ccc1F | > 40 µM (inactive)
33 | Cc1ccc(/C=C2/C(=O)NC(=O)N(CCc3ccc(F)cc3)C2=O)o1 | > 40 µM (inactive)
34 | CCC1CCCCN1S(=O)(=O)c1ccc(S(=O)(=O)N(Cc2cccs2)C2CC2)cc1 (centres undefined) | > 40 µM (inactive)
35 | O=Cc1cccn1-c1sc2c(c1C(=O)O)CCCC2 | > 40 µM (inactive)
36 | O=C(c1ccccc1)c1nc2ccccc2[nH]c1=O | > 40 µM (inactive)
37 | CC(C)c1ccc(C2=C(O)c3ccccc3C(=O)C2=O)cc1 | > 40 µM (inactive)
38 | COc1ccccc1C(=O)Oc1ccc2c(c1)O/C(=C\c1ccncc1)C2=O | > 40 µM (inactive)
39 | CCOC(=O)CS(=O)(=O)c1nc(-c2ccc(F)cc2)cc(C(F)(F)F)n1 | > 40 µM (inactive)
40 | CCOC(=O)/C(=C\c1cn(C)c2ccccc12)[N+](=O)[O-] | > 40 µM (inactive)
41 | Cc1ccc(CNc2nc3ccccc3s2)s1 | > 40 µM (inactive)
42 | CC(=O)Nc1nc(C)c(Oc2ccccc2)c(=O)[nH]1 | > 40 µM (inactive)
43 | C=CCN(CC=C)c1nc2ccccc2nc1C(C#N)C(=O)OC(C)C (centres undefined) | > 40 µM (inactive)
44 | CCn1c(=O)c2c(O)cc(=O)oc2c2ccccc21 | > 40 µM (inactive)
45 | O=C(c1ccccc1)C(CN1CCCC1)c1ccccc1 (centres undefined) | > 40 µM (inactive)
46 | COc1cc(OC)cc(-c2nc3ccccc3c(=O)n2OC(=O)c2ccc(C)c(C)c2)c1 | > 40 µM (inactive)
47 | CCCn1c(SCC(=O)c2ccc3c(c2)NC(=O)CO3)nc2ccccc21 | > 40 µM (inactive)
48 | CC(=C1C(=O)c2ccccc2C1=O)N1CCN(C/C=C/c2ccccc2)CC1 | > 40 µM (inactive)
49 | CCCC(=Nc1ccccc1)C1=C(O)C(C(=O)OC)C(C)(C)CC1=O (centres undefined) | > 40 µM (inactive)
50 | O=c1cc(-c2ccccc2Cl)oc2ccc([N+](=O)[O-])c(O)c12 | > 40 µM (inactive)

Row | Structure (SMILES) | EC50
51 | CCCCCC(=O)N1CCN(CCN=CC2=C(O)CC(c3ccc(OC)c(OC)c3)CC2=O)CC1 (centres undefined) | > 40 µM (inactive)
52 | CCCCCCC1C(C#N)=C(N)OC2=C1C(=O)CC(C)(C)C2 (centres undefined) | > 40 µM (inactive)
53 | O=C(NCc1cccnc1)c1ccc(S(=O)(=O)N2CCCCC2)cc1 | > 40 µM (inactive)
54 | COc1ccc(CNC(=O)c2c(O)c3cccc4c3n(c2=O)CCC4)cc1 | > 40 µM (inactive)
55 | CCCCC(=Nc1ccccc1OC)C1=C(O)CC(c2ccccc2)CC1=O (centres undefined) | > 40 µM (inactive)
56 | CCCC(=Nc1ccccc1OC)C1=C(O)CC(c2ccccc2)CC1=O (centres undefined) | > 40 µM (inactive)
57 | COc1ccc(/C=N/NC(=O)c2csc(-n3nc(C)cc3C(F)(F)F)n2)cc1 | > 40 µM (inactive)
58 | CN(C)C=C1C(=O)N(C2CCCCC2)C(=O)N(C2CCCCC2)C1=O | > 40 µM (inactive)
59 | COc1ccc(CCN2C(=O)C(O)=C(C(=O)c3ccco3)C2c2cccs2)cc1OC (centres undefined) | > 40 µM (inactive)
60 | CN1C(=O)C(C(=O)Nc2ccccc2F)c2ccccc21 (centres undefined) | > 40 µM (inactive)
61 | Cc1ccc2[nH]c3c(c2c1)CC/C(=C/c1ccccc1)C3=O | > 40 µM (inactive)
62 | COc1ccc(OC)c(C2C(C(C)=O)=C(O)C(=O)N2Cc2cccnc2)c1 (centres undefined) | > 40 µM (inactive)
63 | Cc1ccsc1C(=O)Nc1nnc(-c2ccco2)o1 | > 40 µM (inactive)
64 | O=C(CCc1ccccc1)NCCCN1CCOCC1 | > 40 µM (inactive)
65 | CCCC[n+]1c(-c2ccc(Cl)cc2Cl)csc1Nc1ccccc1 | > 40 µM (inactive)
66 | O=C(O)CCCCCN1C(=O)/C(=C\c2ccncc2)SC1=S | > 40 µM (inactive)
67 | Cc1nn(-c2c(Cl)cc(Cl)cc2Cl)c(=O)c2ccccc12 | > 40 µM (inactive)
68 | CC1=CN2C(=N)/C(=C/c3ccc([N+](=O)[O-])o3)C(=O)N=C2S1 | > 40 µM (inactive)
69 | CCCCSc1[nH]c(=O)c(C(=O)OCC)cc1C#N | > 40 µM (inactive)
70 | Oc1ccc(Br)cc1C=Nc1ccc2[nH]ncc2c1 | > 40 µM (inactive)
71 | Cc1nn(C(C)(C)C)c(OC(=O)c2ccc(Br)o2)c1Sc1ccccc1 | > 40 µM (inactive)
72 | CCCNC(=O)CCC(NS(=O)(=O)c1ccc(C)cc1)C(=O)NCCC (centres undefined) | > 40 µM (inactive)
73 | CC(=O)Oc1ccc(N(C(C)=O)S(=O)(=O)c2ccc(C)c([N+](=O)[O-])c2)cc1 | > 40 µM (inactive)
74 | O=C(NNC1=Nc2cccc3cccc1c23)c1ccccc1Br | > 40 µM (inactive)
75 | Cc1c(O)c(S(=O)c2ccccc2)c(=O)n(-c2ccccc2)c1-c1ccccc1 (centres undefined) | > 40 µM (inactive)

Row | Structure (SMILES) | EC50
76 | CCc1ccc2c(c1)CCCN2C(=O)c1ccccc1C(=O)O | > 40 µM (inactive)
77 | CCCCC1C(=O)CC[C@H]2[C@@H]1CC(=O)[C@@H]2C/C=C\CCCC(=O)O (some centres undefined) | > 40 µM (inactive)
78 | C=C(C(=O)c1ccccc1)C(CC(=O)c1ccccc1)c1ccccc1 (centres undefined) | > 40 µM (inactive)
79 | O=c1c2c3c(sc2ncn1/N=C/c1ccc([N+](=O)[O-])o1)CCCC3 | > 40 µM (inactive)
80 | O=C(/C(=C/O)N=Nc1ccc(Cl)cc1)c1ccncc1 | > 40 µM (inactive)
81 | Cc1cc(C(=O)CN2C(=O)NC(C)(CC(C)C)C2=O)c(C)n1-c1ccc2c(c1)OCO2 (centres undefined) | > 40 µM (inactive)
82 | O=C1C=CC2C(c3ccc4c(c3)OCO4)CC1N2Cc1ccccc1 (centres undefined) | > 40 µM (inactive)
83 | N#Cc1cc(C(=O)c2cc(F)ccc2O)cn(-c2nccs2)c1=O | > 40 µM (inactive)
84 | CCCc1[nH]nc2c1C(c1ccc(Br)s1)C(C#N)=C(N)O2 (centres undefined) | > 40 µM (inactive)
85 | COCCCNc1c2c3c(cccc3[nH]c1=O)C(=O)c1ccccc1-2 | > 40 µM (inactive)
86 | CC1(C)Cc2ccccc2-c2nnc(SCC(=O)Nc3ccc4c(c3)OCO4)n21 | > 40 µM (inactive)
87 | O=C(COc1ccc2ccccc2c1)Nc1cccc(C(=O)Nc2ccccc2C(=O)O)c1 | > 40 µM (inactive)
88 | COc1ccc(O)c(C(=O)c2cc(C#N)c(=O)n(CC3CCCO3)c2)c1 (centres undefined) | > 40 µM (inactive)
89 | O=C1NC(=O)N(CCC2=CCCCC2)C(=O)/C1=C\c1cccs1 | > 40 µM (inactive)
90 | CCOC(=O)C1C(=O)C(C(C)=O)C(=O)CC1CC(C)SCC (centres undefined) | > 40 µM (inactive)
91 | CCCCCCCCn1c(=O)c(C(=O)OCC)c(O)c2ccccc21 | > 40 µM (inactive)
92 | COc1ccc(-c2cc(C(F)(F)F)nc(S(C)(=O)=O)n2)cc1OC | > 40 µM (inactive)
93 | COC(=O)c1cc(=O)n(-c2ccccc2)c(=Nc2ccccc2)s1 | > 40 µM (inactive)
94 | Cc1ccc(/C=C/C(=O)C2C(=O)c3ccccc3C2=O)cc1 | > 40 µM (inactive)
95 | O=c1cc(O)c2c(=O)n(-c3ccccc3)c3c(c2o1)CCCCCC3 | > 40 µM (inactive)
96 | Cc1[nH]nc2nc3c(c(OC(=O)c4ccccc4)c12)c(=O)n(C)c(=O)n3C | > 40 µM (inactive)
97 | Cc1ccc2[nH]c(=O)c(CN(CCO)Cc3nnnn3CCc3ccccc3)cc2c1 | > 40 µM (inactive)
98 | Cc1ccnc(SCc2cc(=O)c(OC(=O)c3ccco3)co2)n1 | > 40 µM (inactive)
99 | Cc1cc(C)n(-c2ccc(OCC(=O)O)nn2)n1 | > 40 µM (inactive)
